Measured values published in US4822907A, “Method for recovering α-L-aspartyl-L-phenylalanine methyl ester” (Ajinomoto Co., Inc., priority 1986, dated 1989).
Like-named read-outs stand apart in the source and are kept apart here. Residues, ends and D or L forms follow the SMILES beside them.

How the values were obtained:
[1] = Desalting and concentration of neutralized mother liquor on flat reverse osmosis membrane; residual rate (Example 2, Table 2); format: physicochemical; conditions: pH 5.2, 25°, 40 kg/cm^2 G
Procedure: Next, water was added until the volume became the original volume. Further by repeating similar operation, the system was desalted and concentrated until the volume became half of the original volume.

[2] = Desalting and concentration of raw solution on spiral polyamide reverse osmosis membranes; inhibition rate of each component (Example 1, Table 1); format: physicochemical; conditions: for Inhibition Rate: 40 kg/cm^2
Procedure: Desalting and concentration were performed, while cyclizing and mixing a non-permeation solution to and with the raw solution.
From the composition of the permeation liquid exhausted in this case, the inhibition rate of each component was calculated according to the following equation. [formula]
Analysis method: liquid chromatography (α-A(M)PM, α-APM, α-AP), (Cl^-).

[3] = Permeability of valuable matters through reverse osmosis membranes (general findings); conditions: in words; for permeability of valuable matters: reverse osmosis membrane having NaCl inhibition rate of approximately 30% or more
[4] = cited from earlier work
[5] = not told
[6] = Polyamide Type (A), NaCl inhibition rate 50%
[7] = Polysulfone Type (B), NaCl inhibition rate 25%, comparison
[8] = membrane NaCl inhibition rate 15% (control), immediately after permeation started, pH 4.54, 20° C.
[9] = membrane NaCl inhibition rate 15% (control), when concentrated to 2.5 times, 20° C.
[10] = membrane NaCl inhibition rate 30%, immediately after permeation started, pH 4.54, 20° C.
[11] = membrane NaCl inhibition rate 30%, when concentrated to 2.5 times, 20° C.
[12] = membrane NaCl inhibition rate 60%, immediately after permeation started, pH 4.54, 20° C.
[13] = membrane NaCl inhibition rate 60%, when concentrated to 2.5 times, 20° C.
[14] = membrane NaCl inhibition rate 80%, immediately after permeation started, pH 4.54, 20° C.
[15] = membrane NaCl inhibition rate 80%, when concentrated to 2.5 times, 20° C.

Residual Rate [1, 6]	Residual Rate [1, 7]	permeability for reverse osmosis membranes [3]	permeability of valuable matters [3]	permeability through membrane ([2]; in words, conclusion of Example 1)	permeability for reverse osmosis membranes [5]	permeability of valuable matters [5]	SMILES	Inhibition Rate [2, 8]	Inhibition Rate [2, 9]	Inhibition Rate [2, 10]	Inhibition Rate [2, 11]	Inhibition Rate [2, 12]	Inhibition Rate [2, 13]	Inhibition Rate [2, 14]	Inhibition Rate [2, 15]	stability in aqueous solution ([4]; high temperatures or acidic media)	stability in aqueous solution ([4]; temperatures lower than normal ambient temperatures)
–	–	–	–	–	–	–	[Cl-].[Na+] [NaCl, sodium chloride]	11.0%	9.3%	23.5%	19.4%	60.3%	56.5%	85.6%	82.3%	–	–
97.8%	60.8%	low permeability	low	–	–	–	COC(=O)C[C@H](N)C(=O)N[C@@H](Cc1ccccc1)C(=O)O [α-A(M)P, methyl ester at the L-aspartic acid β-carboxy residue of α-L-aspartyl-L-phenylalanine] (H-Asp(OMe)-Phe-OH)	–	–	–	–	–	–	–	–	–	–
80.3%	48.2%	especially high permeability	low	specifically readily permeable	–	–	COC(=O)C[C@H](N)C(=O)N[C@@H](Cc1ccccc1)C(=O)OC [α-A(M)PM, methyl ester of the L-aspartic acid β-carboxyl residue of α-L-aspartyl-L-phenylalanine methyl ester] (H-Asp(OMe)-Phe-OMe)	56.7%	59.3%	82.7%	84.1%	91.0%	92.2%	93.1%	93.9%	–	–
98.0%	60.8%	–	–	–	low permeability	low	COC(=O)[C@H](Cc1ccccc1)NC(=O)[C@@H](N)CC(=O)O [α-APM, α-L-aspartyl-L-phenylalanine methyl ester] (H-Asp-Phe-OMe)	74.1%	79.2%	96.2%	97.7%	99.1%	99.3%	99.0%	99.6%	readily undergoes various undesirable reactions	relatively stable

SMILES	Residual Rate [1, 6]	Residual Rate [1, 7]	permeability for reverse osmosis membranes [3]	permeability of valuable matters [3]	permeability through membrane ([2]; in words, conclusion of Example 1)	permeability for reverse osmosis membranes [5]	permeability of valuable matters [5]	Inhibition Rate [2, 8]	Inhibition Rate [2, 9]	Inhibition Rate [2, 10]	Inhibition Rate [2, 11]	Inhibition Rate [2, 12]	Inhibition Rate [2, 13]	Inhibition Rate [2, 14]	Inhibition Rate [2, 15]	stability in aqueous solution ([4]; high temperatures or acidic media)	stability in aqueous solution ([4]; temperatures lower than normal ambient temperatures)
Cl.N [NH4 Cl]	50.4%	32.5%	–	–	–	–	–	–	–	–	–	–	–	–	–	–	–
N[C@@H](CC(=O)O)C(=O)N[C@@H](Cc1ccccc1)C(=O)O [α-AP, α-L-aspartyl-L-phenylalanine] (H-Asp-Phe-OH)	98.7%	68.9%	low permeability	low	–	–	–	81.5%	85.6%	98.8%	98.3%	99.5%	99.7%	99.7%	99.9%	–	–
